Experiments:
[1] = design: method as in PMID 26013823; details: cited from earlier work
type I IFN signaling = assay: Type I IFN signaling in U251 cells (qPCR, Western blot); assay type: cell-based, Homo sapiens
Protocol: Figure 7 Hc-CATH-induced AXL downregulation reverses the negative regulation of AXL on type I IFN signaling.A, schematic diagram of B and C. B, effect of Hc-CATH on type I IFN signaling. U251 cells were cultured in the presence of Hc-CATH (2.5 μM) or same volume of PBS (solvent of peptide). After culture at 37 °C for 24 h, type I IFN genes were tested by qPCR. C, effect of Hc-CATH on type I IFN signaling upon ZIKV challenge. U251 cells were cultured in the presence of Hc-CATH (2.5 μM) or PBS (solvent of peptide) at 37 °C for 2 h. Cells were washed with PBS and incubated with ZIKV (MOI = 1) at 37 °C for 2 h. Cell were washed with PBS again and cultured in DMEM containing 2% FBS at 37 °C for 24 h. Type I IFN genes were tested by qPCR. D, schematic diagram of E–G. E and F, U251 cells were cultured in the presence of Hc-CATH (2.5 μM) or PBS (solvent of peptide) at 37 °C for 12 h. Cells were stimulated with SeV (MOI = 1) at 37 °C for 12 h. Type I IFN gene was tested by qPCR (E). […] DMEM, Dulbecco’s modified Eagle’s medium; FBS, fetal bovine serum; IFN, interferon; MOI, multiplicity of infection; qPCR, quantitative PCR; SeV, Sendai virus; ZIKV, Zika virus.
U251 cells were cultured with Hc-CATH (2.5 μM) or PBS at 37 °C for 24 h, and cells were collected for testing type I IFN signaling gene and protein by qPCR and WB, respectively. Upon ZIKV challenge, U251 cells were incubated with Hc-CATH (2.5 μM) or PBS at 37 °C for 2 h and washed three times with PBS. Cells were then incubated with ZIKV (MOI = 1) for 2 h and washed with PBS. After culture for 24 h, type I IFN signaling genes were tested by qPCR. Upon SeV challenge, U251 cells were incubated with Hc-CATH (2.5 μM) or PBS at 37 °C for 12 h, cells were then stimulated with SeV or same volume of PBS for 12 h, and type I IFN signaling gene and protein were tested by qPCR and WB, respectively.

ZIKV [2] = assay: ZIKV replication stage, A549 cells (peptide added after infection); assay type: cell-based, ZIKV strain PRVABC59; details: 2.5 μM after ZIKV infection, 48 h; NS3 Western blot
Protocol: B–I, Vero (B–G), A549 (H), or U251 (I) cells were incubated with ZIKV (MOI = 1) at 37 °C for 2 h, washed with PBS, and transferred with fresh DMEM containing 2% FBS and Hc-CATH (2.5 μM), AC5 (2.5 μM), LL-37 (2.5 μM), or PBS (solvent of peptide). After culture at 37 °C for 48 h, intracellular ZIKV RNA (B), NS3 protein (C, D, H, and I), E protein level (E, the scale bar represents 50 μm), and extracellular ZIKV titer (F and G) were detected by qPCR, Western blot, immunofluorescence staining, and plaque-forming assay, respectively.
Vero cells were incubated with ZIKV (MOI = 1) at 37 °C for 2 h, washed three times with PBS, and transferred with fresh DMEM containing 2% FBS and Hc-CATH (2.5 μM), AC5 (2.5 μM), LL-37 (2.5 μM), or PBS. After culture at 37 °C for 48 h, intracellular ZIKV RNA, NS3 protein, E protein, and extracellular ZIKV titer were detected by qPCR, WB, IF, and plaque-forming assay, respectively. The effect of Hc-CATH on ZIKV replication stage was further tested in A549 and U251 cells under the same condition, and intracellular ZIKV NS3 protein was detected by WB.

ZIKV [3] = assay: Susceptibility of U251 cells to ZIKV (peptide pretreatment); assay type: cell-based, ZIKV strain PRVABC59; details: 1.25, 2.5, and 5 μM, 2 h before ZIKV MOI = 1; 24 h; Western blot
Protocol: Figure 5 Hc-CATH downregulates AXL in U251 cell.A, schematic diagram of B and C. B, U251 cells were seeded in 24-well plates (5 × 10^4 cells/well) and cultured in DMEM containing 2% FBS. Hc-CATH (1.25, 2.5, and 5 μM) or same volume of PBS (peptide solvent) was added to cells and incubated at 37 °C for 24 h. The level of AXL was tested by Western blot. C, U251 cells were seeded in 8-well cover slip chambers (5 × 10^4 cells/well) and cultured in DMEM containing 2% FBS. Hc-CATH (1.25, 2.5, and 5 μM) or PBS was added to cells and incubated at 37 °C for 24 h. The level of AXL was tested by immunofluorescence staining. The scale bar represents 50 μm. D, schematic diagram of E–G. E–G, U251 cells were seeded in 24-well plates (5 × 10^4 cells/well) and cultured in DMEM containing 2% FBS. Hc-CATH (1.25, 2.5, and 5 μM) or PBS was added to cells and incubated at 37 °C for 2 h. Cells were washed with PBS and incubated with ZIKV (MOI = 1). After incubation at 37 °C for 2 h, cells were washed with PBS and cultured in DMEM containing 2% FBS.
Vero, A549, or U251 cells were incubated with peptide or PBS at 37 °C for 2 h. […]
The effect of Hc-CATH on AXL was further confirmed in A549 and U251 cells. A549 or U251 cells were incubated with Hc-CATH (1.25, 2.5, and 5 μM) or PBS at 37 °C for 24 h, and the level of AXL was detected by WB and IF, respectively. […]

KFFKRLLKSVRRAVKKFRKKPRLIGLSTLL [Hc-CATH, cathelicidin antimicrobial peptide identified from the sea snake Hydrophis cyanocinctus]
anti-inflammatory activity [1]: potent anti-inflammatory activity
levels of type I IFN genes in response to ZIKV infection (type I IFN signaling; 2.5 μM 2 h, then ZIKV MOI = 1, 24 h, qPCR): upregulated the levels of type I IFN genes
IFN-β expression in response to SeV stimulation (type I IFN signaling; 2.5 μM 12 h, then SeV MOI = 1 12 h, qPCR, compared with PBS): significantly increased IFN-β expression
levels of type I IFN genes (type I IFN signaling; 2.5 μM, 24 h, qPCR): significantly increased the levels of type I IFN genes
phosphorylation of TANK-binding kinase 1 and IRF3 (type I IFN signaling; 2.5 μM, Western blot, relative to PBS): increased the phosphorylation of TANK-binding kinase 1 and IRF3
ZIKV infection in A549 cells, peptide added after infection (ZIKV [2]): did not inhibit ZIKV infection
susceptibility of U251 cells to ZIKV (NS3 protein) (ZIKV [3]): decreased the susceptibility

Reference: publication PMC9530963, “A cathelicidin antimicrobial peptide from Hydrophis cyanocinctus inhibits Zika virus infection by downregulating expression of a viral entry factor” (The Journal of Biological Chemistry, 2022)
